In US20240376094A2, “SELECTIVE BCL-XL PROTAC COMPOUNDS AND METHODS OF USE” (Les Laboratoires Servier, priority 2021, published 2024):

Experiments:
Format in all cases: cell-based
MOLT-4 cells = experiment: MOLT-4 cell viability, CTG assay; conditions: Homo sapiens, MOLT-4, 48 h
How it was run: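 Cells grown in RPMI 1640 with 10% FBS at 37° C, 5% CO2, then exposed to compounds for 48 h (11-point 5-fold dilution, triplicates). ATP measured by CellTiter-Glo luminescence; IC50 from four-parameter fit versus control, mean of ≥2 independent experiments.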

Bcl-xL = target: T1, Bcl-xL (Homo sapiens, UniProt Q07817); experiment: HCT116 Bcl-xL degradation, capillary-based immunoassay (WES); conditions: HCT116, 24 h, 9-point serial dilution
T1 construct: Measured levels of Bcl-xL protein of HCT116 cells treated with the tested compounds; host or cells: HCT116
How it was run: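 HCT116 cells treated 24 h with compound at 10/100 nM and/or 9-point dilution (quadruplicates), then lysed. Bcl-xL measured by capillary WES immunoassay, normalized to cofilin and expressed as % of untreated cells. DC50 from four-parameter curve fit.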

[1] = tested on: EBC-1 lung cancer cell line; experiment: EBC-1 cell proliferation, CellTiter-Glo assay; conditions: Homo sapiens, 120 h; Ebc-1 cell viability, CTG assay, 5 days of treatment; read-out: CTG 5 day Ebc1 GI50
How it was run: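 EBC-1 cells seeded at 1000 per well overnight, then exposed to 10-point dilutions (0.508 nM–10 μM final) for 5 days at 37 °C, in triplicate. ATP luminescence by CellTiter-Glo, normalised to untreated wells; GI50 from four-parameter logistic fit, runs valid only with at least one doubling.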

HiBiT-tagged BCL-xL = target: T2, HiBiT-tagged BCL-xL (Homo sapiens, UniProt Q07817); experiment: NCI-H1650 BCL-xL protein levels, Nano-Glo HiBiT Lytic Detection; conditions: NCI-H1650 expressing HiBiT-tagged BCL-xL, overnight incubation, read-out: Bcl-xl HIBIT NCIH1650 DC50
T2 construct: expressed in transfected cells; host or cells: NCI-H1650 (ATCC No. CRL-5883), engineered HiBiT cell line
How it was run: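 NCI-H1650 cells expressing HiBiT-tagged BCL-xL (5000/well) were treated overnight at 37° C with 10 concentrations, final 0.508 nM-10 μM, in triplicate. Remaining BCL-xL measured by Nano-Glo HiBiT lytic luminescence, normalized to untreated cells; 50% values by four-parameter logistic fit.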

T2 sequence (Q07817 whole entry): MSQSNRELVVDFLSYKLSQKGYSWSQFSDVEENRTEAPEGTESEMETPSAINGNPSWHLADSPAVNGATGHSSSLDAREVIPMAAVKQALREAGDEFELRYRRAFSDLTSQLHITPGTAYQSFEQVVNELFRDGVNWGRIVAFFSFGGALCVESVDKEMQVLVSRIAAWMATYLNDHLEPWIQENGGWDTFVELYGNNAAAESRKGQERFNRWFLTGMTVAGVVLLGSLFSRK
T1 sequence (Q07817 whole entry): as above

Row | Structure (SMILES) | IC50 (MOLT-4 cells) | DC50 (Bcl-xL) | GI50 [1] | DC50 (HiBiT-tagged BCL-xL)
1 | Cc1ncsc1-c1ccc([C@H](C)NC(=O)[C@@H]2C[C@@H](O)CN2C(=O)[C@@H](NC(=O)C2CCN(C(=O)CCCCCCCN(C)CCOC34CC5(C)CC(C)(CC(Cn6ncc(-c7ccc(N8CCCc9c8nnc(Nc8nc%10ccccc%10s8)c9C)nc7C(=O)O)c6C)(C5)C3)C4)CC2)C(C)(C)C)cc1 [Example 81, 6-[3-(1,3-benzothiazol-2-ylamino)-4-methyl-6,7-dihydro-5H-pyrido[2,3-c]pyridazin-8-yl]-3-[1-[[3-[2-[[8-[4-[[(1S)-1-[(2S,4R)-4-hydroxy-2-[[(1S)-1-[4-(4-methylthiazol-5-yl)phenyl]ethyl]carbamoyl]pyrrolidine-1-carbonyl]-2,2-dimethyl-propyl]carbamoyl]-1-piperidyl]-8-oxo-octyl]-methyl-amino]ethoxy]-5,7-dimethyl-1-adamantyl]methyl]-5-methyl-pyrazol-4-yl]pyridine-2-carboxylic acid] | 15.1 nM | > 316 nM | 203 nM | > 1670 nM
2 | Cc1ncsc1-c1ccc([C@H](C)NC(=O)[C@@H]2C[C@@H](O)CN2C(=O)[C@@H](NC(=O)C2CCN(C(=O)CCCCCCCCCN(C)CCOC34CC5(C)CC(C)(CC(Cn6ncc(-c7ccc(N8CCCc9c8nnc(Nc8nc%10ccccc%10s8)c9C)nc7C(=O)O)c6C)(C5)C3)C4)CC2)C(C)(C)C)cc1 [Example 84, 6-[3-(1,3-benzothiazol-2-ylamino)-4-methyl-6,7-dihydro-5H-pyrido[2,3-c]pyridazin-8-yl]-3-[1-[[3-[2-[[10-[4-[[(1S)-1-[(2S,4R)-4-hydroxy-2-[[(1S)-1-[4-(4-methylthiazol-5-yl)phenyl]ethyl]carbamoyl]pyrrolidine-1-carbonyl]-2,2-dimethyl-propyl]carbamoyl]-1-piperidyl]-10-oxo-decyl]-methyl-amino]ethoxy]-5,7-dimethyl-1-adamantyl]methyl]-5-methyl-pyrazol-4-yl]pyridine-2-carboxylic acid] | 18.1 nM | > 316 nM | 171 nM | > 1670 nM
3 | Cc1ncsc1-c1ccc([C@H](C)NC(=O)[C@@H]2C[C@@H](O)CN2C(=O)[C@@H](NC(=O)CCOCCOCCOCCOCCN(C)CCOC23CC4(C)CC(C)(CC(Cn5ncc(-c6ccc(N7CCCc8c7nnc(Nc7nc9ccccc9s7)c8C)nc6C(=O)O)c5C)(C4)C2)C3)C(C)(C)C)cc1 [Example 89, 6-[3-(1,3-benzothiazol-2-ylamino)-4-methyl-6,7-dihydro-5H-pyrido[2,3-c]pyridazin-8-yl]-3-[1-[[3-[2-[2-[2-[2-[2-[3-[[(1S)-1-[(2S,4R)-4-hydroxy-2-[[(1S)-1-[4-(4-methylthiazol-5-yl)phenyl]ethyl]carbamoyl]pyrrolidine-1-carbonyl]-2,2-dimethyl-propyl]amino]-3-oxo-propoxy]ethoxy]ethoxy]ethoxy]ethyl-methyl-amino]ethoxy]-5,7-dimethyl-1-adamantyl]methyl]-5-methyl-pyrazol-4-yl]pyridine-2-carboxylic acid] | 57.6 nM | > 316 nM | 435 nM | 13 nM
4 | Cc1ncsc1-c1ccc([C@H](C)NC(=O)[C@@H]2C[C@@H](O)CN2C(=O)[C@@H](NC(=O)CCOCCN(C)CCOC23CC4(C)CC(C)(CC(Cn5ncc(-c6ccc(N7CCCc8c7nnc(Nc7nc9ccccc9s7)c8C)nc6C(=O)O)c5C)(C4)C2)C3)C(C)(C)C)cc1 [Example 103, 6-[3-(1,3-benzothiazol-2-ylamino)-4-methyl-6,7-dihydro-5H-pyrido[2,3-c]pyridazin-8-yl]-3-[1-[[3-[2-[2-[3-[[(1S)-1-[(2S,4R)-4-hydroxy-2-[[(1S)-1-[4-(4-methylthiazol-5-yl)phenyl]ethyl]carbamoyl]pyrrolidine-1-carbonyl]-2,2-dimethyl-propyl]amino]-3-oxo-propoxy]ethyl-methyl-amino]ethoxy]-5,7-dimethyl-1-adamantyl]methyl]-5-methyl-pyrazol-4-yl]pyridine-2-carboxylic acid] | 63.4 nM | 13.6 nM | 378 nM | > 1670 nM

The next compounds have a lower IC50 (MOLT-4 cells) than those just listed; values first:

Row | IC50 (MOLT-4 cells) | DC50 (Bcl-xL) | GI50 [1] | DC50 (HiBiT-tagged BCL-xL) | Structure (SMILES)
5 | 10 nM | > 316 nM | 157 nM | > 1670 nM | Cc1ncsc1-c1ccc([C@H](C)NC(=O)[C@@H]2C[C@@H](O)CN2C(=O)[C@@H](NC(=O)C2CCN(C(=O)CCCCCCCCCCN(C)CCOC34CC5(C)CC(C)(CC(Cn6ncc(-c7ccc(N8CCCc9c8nnc(Nc8nc%10ccccc%10s8)c9C)nc7C(=O)O)c6C)(C5)C3)C4)CC2)C(C)(C)C)cc1 [Example 82, 6-[3-(1,3-benzothiazol-2-ylamino)-4-methyl-6,7-dihydro-5H-pyrido[2,3-c]pyridazin-8-yl]-3-[1-[[3-[2-[[11-[4-[[(1S)-1-[(2S,4R)-4-hydroxy-2-[[(1S)-1-[4-(4-methylthiazol-5-yl)phenyl]ethyl]carbamoyl]pyrrolidine-1-carbonyl]-2,2-dimethyl-propyl]carbamoyl]-1-piperidyl]-11-oxo-undecyl]-methyl-amino]ethoxy]-5,7-dimethyl-1-adamantyl]methyl]-5-methyl-pyrazol-4-yl]pyridine-2-carboxylic acid]
6 | 4.17 nM | 0.291 nM | 64 nM | 5 nM | Cc1ncsc1-c1ccc(CNC(=O)[C@@H]2C[C@@H](O)CN2C(=O)[C@@H](NC(=O)C2(F)CC2)C(C)(C)C)c(OCCCCCCCCCCCCCN(C)CCOC23CC4(C)CC(C)(CC(Cn5ncc(-c6ccc(N7CCCc8c7nnc(Nc7nc9ccccc9s7)c8C)nc6C(=O)O)c5C)(C4)C2)C3)c1 [Example 85, 6-[3-(1,3-benzothiazol-2-ylamino)-4-methyl-6,7-dihydro-5H-pyrido[2,3-c]pyridazin-8-yl]-3-[1-[[3-[2-[13-[2-[[[(2S,4R)-1-[(2S)-2-[(1-fluorocyclopropanecarbonyl)amino]-3,3-dimethyl-butanoyl]-4-hydroxy-pyrrolidine-2-carbonyl]amino]methyl]-5-(4-methylthiazol-5-yl)phenoxy]tridecyl-methyl-amino]ethoxy]-5,7-dimethyl-1-adamantyl]methyl]-5-methyl-pyrazol-4-yl]pyridine-2-carboxylic acid]
7 | 14.4 nM | 1.06 nM | 112 nM | > 1670 nM | Cc1ncsc1-c1ccc(CNC(=O)[C@@H]2C[C@@H](O)CN2C(=O)[C@@H](NC(=O)C2(F)CC2)C(C)(C)SCCCCCCCCCCN(C)CCOC23CC4(C)CC(C)(CC(Cn5ncc(-c6ccc(N7CCCc8c7nnc(Nc7nc9ccccc9s7)c8C)nc6C(=O)O)c5C)(C4)C2)C3)cc1 [Example 94, 6-[3-(1,3-benzothiazol-2-ylamino)-4-methyl-6,7-dihydro-5H-pyrido[2,3-c]pyridazin-8-yl]-3-[1-[[3-[2-[10-[(2R)-2-[(1-fluorocyclopropanecarbonyl)amino]-3-[(2S,4R)-4-hydroxy-2-[[4-(4-methylthiazol-5-yl)phenyl]methylcarbamoyl]pyrrolidin-1-yl]-1,1-dimethyl-3-oxo-propyl]sulfanyldecyl-methyl-amino]ethoxy]-5,7-dimethyl-1-adamantyl]methyl]-5-methyl-pyrazol-4-yl]pyridine-2-carboxylic acid]
8 | 5.77 nM | 2.85 nM | 2660 nM | > 1670 nM | Cc1cc(N(CCCCN(C)C(=O)CCCCCCCCCOc2cccc3c2C(=O)N(C2CCC(=O)NC2=O)C3=O)c2ccc(-c3cnn(CC45CC6(C)CC(C)(C4)CC(OCCN(C)C)(C6)C5)c3C)c(C(=O)O)n2)nnc1Nc1nc2ccccc2s1 (stereo not drawn) [Example 95, 6-[[6-(1,3-benzothiazol-2-ylamino)-5-methyl-pyridazin-3-yl]-[4-[10-[2-(2,6-dioxo-3-piperidyl)-1,3-dioxo-isoindolin-4-yl]oxydecanoyl-methyl-amino]butyl]amino]-3-[1-[[3-[2-(dimethylamino)ethoxy]-5,7-dimethyl-1-adamantyl]methyl]-5-methyl-pyrazol-4-yl]pyridine-2-carboxylic acid]
9 | 9.7 nM | > 316 nM | 81 nM | > 1670 nM | Cc1ncsc1-c1ccc([C@H](C)NC(=O)[C@@H]2C[C@@H](O)CN2C(=O)[C@@H](NC(=O)CCOCCCCCCN(C)CCOC23CC4(C)CC(C)(CC(Cn5ncc(-c6ccc(N7CCCc8c7nnc(Nc7nc9ccccc9s7)c8C)nc6C(=O)O)c5C)(C4)C2)C3)C(C)(C)C)cc1 [Example 108, 6-[3-(1,3-benzothiazol-2-ylamino)-4-methyl-6,7-dihydro-5H-pyrido[2,3-c]pyridazin-8-yl]-3-[1-[[3-[2-[6-[3-[[(1S)-1-[(2S,4R)-4-hydroxy-2-[[(1S)-1-[4-(4-methylthiazol-5-yl)phenyl]ethyl]carbamoyl]pyrrolidine-1-carbonyl]-2,2-dimethyl-propyl]amino]-3-oxo-propoxy]hexyl-methyl-amino]ethoxy]-5,7-dimethyl-1-adamantyl]methyl]-5-methyl-pyrazol-4-yl]pyridine-2-carboxylic acid]
